Where a SMILES comes first, the peptide text is derived from it. The star is where a group is joined. C16 diacid = O=C(O)CCCCCCCCCCCCCCC(=O)*
What was measured:
Type in all cases: cell-based
[1] = target: T1, human GIP receptor (Homo sapiens, UniProt P48546); assay: cAMP agonism (CisBio cAMP Dynamic 2 HTRF assay)
T1 sequence (P48546 22-466): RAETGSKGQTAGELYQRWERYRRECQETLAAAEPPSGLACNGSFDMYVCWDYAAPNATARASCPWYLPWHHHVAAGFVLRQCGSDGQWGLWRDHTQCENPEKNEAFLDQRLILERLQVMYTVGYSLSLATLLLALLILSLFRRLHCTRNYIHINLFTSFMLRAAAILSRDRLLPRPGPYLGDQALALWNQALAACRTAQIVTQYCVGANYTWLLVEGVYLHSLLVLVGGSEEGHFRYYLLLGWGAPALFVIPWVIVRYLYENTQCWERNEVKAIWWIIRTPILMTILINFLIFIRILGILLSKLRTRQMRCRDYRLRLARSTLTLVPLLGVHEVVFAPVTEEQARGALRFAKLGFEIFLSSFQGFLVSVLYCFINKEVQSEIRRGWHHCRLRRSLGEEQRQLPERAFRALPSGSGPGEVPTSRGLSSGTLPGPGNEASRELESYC
Procedure: To test for agonistic properties at the GIP receptor, compounds were diluted and added to cells as described above and incubated for 30 min at 37° C. The resulting increase in intracellular cAMP was determined using the CisBio cAMP Dynamic 2 HTRF Assay Kit as described above.

[2] = target: T1, human GIP receptor; assay: cAMP accumulation, agonism (DiscoveRx HitHunter cAMP XS assay); design: host or cells: COS-7 (transient, calcium phosphate; pCMV-Script vector)
Procedure: Transient transfected COS-7 cells expressing the human GIP receptor were seeded in white 96-well plates with a density of 3.5*10^4/well. The day after, the cells were washed twice with Hepes buffered saline (HBS) buffer and incubated with HBS and 1 mM 3-isobutyl-1-methylxanthine (IBMX) for 30 min at 37° C. To test for agonistic properties, ligands were added and incubated for 30 min at 37° C. In order to test for antagonistic properties, the cells were preincubated with the antagonists for 10 min prior to the addition of the agonist and subsequent incubated for 20 additional min. The HitHunter™ cAMP XS assay (DiscoveRx) was carried out according to the manufacturer's instructions.
In order to develop a GIP receptor antagonist with improved antagonistic properties, individual amino acid substitutions were conducted on GIP(3-30)NH2 and in particular at positions: 16, 18, 30 or 3, 16, 18, 30. The obtained peptides were lipidated at position 18 directly or via a linker. Both the agonistic and antagonistic profiles of the compounds were tested in cAMP accumulation experiments done in transiently transfected COS-7 cells expressing the human GIP receptor. To investigate if these mutated analogues still retained their antagonistic properties, their ability to inhibit a GIP-mediated cAMP response corresponding to 50-80% of maximum activation was examined.

[3] = target: T1, human GIP receptor; assay: cAMP antagonism (CisBio cAMP Dynamic 2 HTRF assay); design: pCMV-Script vector; settings: Table 1C, CisBio, HEK-293 cells
Procedure: The in vitro functional activity of compounds towards human GIP receptor can also be determined in HEK-293 cells transiently expressing the receptor. On the day of the assay, cells were resuspended in HBSS buffer (Gibco, 14025-50) supplemented with 20 mM HEPES (Gibco, 15630-106), 0,1% Pluronic F-68 (Gibco, 24040-032) and 0,1% casein (Sigma, C4765), and plated in 384-well plates at a density of 5000 cells/well. The GIP peptide analogues of the present disclosure were diluted in HBSS buffer supplemented with 20 mM HEPES, 0,1% pluronic, 0,1% casein and 500 uM IBMX. […] The resulting decrease in intracellular cAMP was quantitatively determined using the CisBio cAMP Dynamic 2 HTRF Assay Kit. The assay is based on a competition between native cAMP produced by cells and cAMP labeled with the dye d2 for binding to a cryptate labeled antibody. The specific signal (i.e. energy transfer signal) is inversely proportional to the concentration of cAMP in the sample.
The cAMP-d2 conjugate and the antibody anti-cAMP-Cryptate, both diluted in lysis buffer provided in the kit, were added to the cells according to the manufacturer's protocol. The resulting competitive assay was incubated for 60 minutes at room temperature, and the signal was detected by using a PerkinElmer Envision® instrument with excitation at 320 nm and emission at 665 nm and 620 nm. The HTRF ratio (emission at 665 nm/620 nm*10,000) is inversely proportional to the amount of cAMP present and is converted to nM cAMP per well using a cAMP standard curve. The dose-response curves were fitted using the non-linear regression analysis (four-logistic parameter equation) in GraphPad Prism, whereby pIC50 values were estimated.

[4] = HEK293, read-out: cAMP agonism, % Efficacy, Table 1C, HEK-293 cells
[5] = COS-7, read-out: cAMP agonism, Emax

Compound	Emax [1, 4] [%]	Emax [2, 5] [%]	also measured
CC[C@H](C)[C@H](NC(=O)[C@H](CO)NC(=O)[C@H](Cc1ccc(O)cc1)NC(=O)[C@H](CC(=O)O)NC(=O)[C@H](CO)NC(=O)[C@@H](NC(=O)[C@H](Cc1ccccc1)NC(=O)[C@@H](N)[C@@H](C)O)[C@@H](C)CC)C(=O)N[C@@H](C)C(=O)N[C@@H](CC(C)C)C(=O)N[C@@H](CC(=O)O)C(=O)N[C@@H](CCCNC(=N)N)C(=O)N[C@H](C(=O)N[C@@H](CCCCNC(=O)CC[C@H](NC(=O)CCCCCCCCCCCCCCC(=O)O)C(=O)O)C(=O)N[C@@H](CCC(N)=O)C(=O)N[C@@H](CCC(N)=O)C(=O)N[C@@H](CC(=O)O)C(=O)N[C@@H](Cc1ccccc1)C(=O)N[C@H](C(=O)N[C@@H](CC(N)=O)C(=O)N[C@@H](Cc1c[nH]c2ccccc12)C(=O)N[C@@H](CC(C)C)C(=O)N[C@@H](CC(C)C)C(=O)N[C@@H](C)C(=O)N[C@@H](CCC(N)=O)C(=O)N[C@@H](CCCNC(=N)N)C(N)=O)C(C)C)[C@@H](C)CC [AT233] (HELM PEPTIDE1{T.F.I.S.D.Y.S.I.A.L.D.R.I.K.Q.Q.D.F.V.N.W.L.L.A.Q.R.[am]}|PEPTIDE2{[O=C(O)CCCCCCCCCCCCCCC(=O)[*:2]].[gGlu]}$PEPTIDE1,PEPTIDE2,14:R3-2:R2$$$V2.0; N-terminus assumed)	0	28	cAMP antagonism, % inhib [3]: 70%; IC50 ([3]; cAMP antagonism, nM (IC50), agonist GIP1-42 at EC50): 34.2 nM
CC[C@H](C)[C@H](NC(=O)[C@H](CO)NC(=O)[C@H](Cc1ccc(O)cc1)NC(=O)[C@H](CC(=O)O)NC(=O)[C@H](CO)NC(=O)[C@@H](NC(=O)[C@H](Cc1ccccc1)NC(=O)[C@@H](NC(=O)CNC(=O)[C@@H]1CCCN1)[C@@H](C)O)[C@@H](C)CC)C(=O)N[C@@H](C)C(=O)N[C@@H](CCSC)C(=O)N[C@@H](CC(=O)O)C(=O)N[C@@H](CCCNC(=N)N)C(=O)N[C@H](C(=O)N[C@@H](CCCCNC(=O)COCCOCCNC(=O)CC[C@H](NC(=O)CCCCCCCCCCCCCCC(=O)O)C(=O)O)C(=O)N[C@@H](CCC(N)=O)C(=O)N[C@@H](CCC(N)=O)C(=O)N[C@@H](CC(=O)O)C(=O)N[C@@H](Cc1ccccc1)C(=O)N[C@H](C(=O)N[C@@H](CC(N)=O)C(=O)N[C@@H](Cc1c[nH]c2ccccc12)C(=O)N[C@@H](CC(C)C)C(=O)N[C@@H](CC(C)C)C(=O)N[C@@H](C)C(=O)N[C@@H](CCC(N)=O)C(=O)N[C@@H](CCCNC(=N)N)C(=O)O)C(C)C)[C@@H](C)CC [AT273] (HELM PEPTIDE1{P.G.T.F.I.S.D.Y.S.I.A.M.D.R.I.K.Q.Q.D.F.V.N.W.L.L.A.Q.R}|PEPTIDE2{[O=C(O)CCCCCCCCCCCCCCC(=O)[*:2]].[gGlu].[O=C(COCCOCCN[*:1])[*:2]]}$PEPTIDE1,PEPTIDE2,16:R3-3:R2$$$V2.0; N-terminus assumed)	0	35	
CC[C@H](C)[C@H](NC(=O)[C@H](CO)NC(=O)[C@H](Cc1ccc(O)cc1)NC(=O)[C@H](CC(=O)O)NC(=O)[C@H](CO)NC(=O)[C@@H](NC(=O)[C@H](Cc1ccccc1)NC(=O)[C@@H](NC(=O)CNC(=O)[C@@H](N)CCC(=O)O)[C@@H](C)O)[C@@H](C)CC)C(=O)N[C@@H](C)C(=O)N[C@@H](CCSC)C(=O)N[C@@H](CC(=O)O)C(=O)N[C@@H](CCCCN)C(=O)N[C@H](C(=O)N[C@@H](CCCCNC(=O)CCCCCCCCCCCCCCC(=O)O)C(=O)N[C@@H](CCC(N)=O)C(=O)N[C@@H](CCC(N)=O)C(=O)N[C@@H](CC(=O)O)C(=O)N[C@@H](Cc1ccccc1)C(=O)N[C@H](C(=O)N[C@@H](CC(N)=O)C(=O)N[C@@H](Cc1c[nH]c2ccccc12)C(=O)N[C@@H](CC(C)C)C(=O)N[C@@H](CC(C)C)C(=O)N[C@@H](C)C(=O)N[C@@H](CCC(N)=O)C(=O)N[C@@H](CCC(=O)O)C(N)=O)C(C)C)[C@@H](C)CC [AT477] (H-EGTFISDYSIAMDKIK(C16 diacid)QQDFVNWLLAQE-NH2; N-terminus assumed)	0		cAMP agonism, Emax ([2]; Table 1B, DiscoveRx, COS-7 cells): No Agonism
CC[C@H](C)[C@H](NC(=O)[C@H](CO)NC(=O)[C@H](Cc1ccc(O)cc1)NC(=O)[C@H](CCC(=O)O)NC(=O)[C@H](CO)NC(=O)[C@@H](NC(=O)[C@H](Cc1ccccc1)NC(=O)[C@@H](NC(=O)CNC(=O)[C@@H](N)CCC(=O)O)[C@@H](C)O)[C@@H](C)CC)C(=O)N[C@@H](C)C(=O)N[C@@H](CCSC)C(=O)N[C@@H](CCC(=O)O)C(=O)N[C@@H](CCCCN)C(=O)N[C@H](C(=O)N[C@@H](CCCCNC(=O)CCCCCCCCCCCCCCC(=O)O)C(=O)N[C@@H](CCC(N)=O)C(=O)N[C@@H](CCC(N)=O)C(=O)N[C@@H](CCC(=O)O)C(=O)N[C@@H](Cc1ccccc1)C(=O)N[C@H](C(=O)N[C@@H](CCC(N)=O)C(=O)N[C@@H](Cc1c[nH]c2ccccc12)C(=O)N[C@@H](CC(C)C)C(=O)N[C@@H](CC(C)C)C(=O)N[C@@H](C)C(=O)N[C@@H](CCC(N)=O)C(=O)N[C@@H](CCCCN)C(N)=O)C(C)C)[C@@H](C)CC [AT482] (H-EGTFISEYSIAMEKIK(C16 diacid)QQEFVQWLLAQK-NH2; N-terminus assumed)			Emax ([1]; HEK293, Table 1C, HEK-293 cells, read-out: cAMP agonism, % Efficacy): 0%; Emax ([2]; Table 1B, DiscoveRx, COS-7 cells, read-out: cAMP agonism, Emax): 10%
CC[C@H](C)[C@H](NC(=O)[C@H](CO)NC(=O)[C@H](Cc1ccc(O)cc1)NC(=O)[C@H](CC(=O)O)NC(=O)[C@H](CO)NC(=O)[C@@H](NC(=O)[C@H](Cc1ccccc1)NC(=O)[C@@H](NC(=O)CNC(=O)CN)[C@@H](C)O)[C@@H](C)CC)C(=O)N[C@@H](C)C(=O)N[C@@H](CCSC)C(=O)N[C@@H](CC(=O)O)C(=O)N[C@@H](CCCNC(=N)N)C(=O)N[C@H](C(=O)N[C@@H](CCCCNC(=O)CCCCCCCCCCCCCCC(=O)O)C(=O)N[C@@H](CCC(N)=O)C(=O)N[C@@H](CCC(N)=O)C(=O)N[C@@H](CC(=O)O)C(=O)N[C@@H](Cc1ccccc1)C(=O)N[C@H](C(=O)N[C@@H](CC(N)=O)C(=O)N[C@@H](Cc1c[nH]c2ccccc12)C(=O)N[C@@H](CC(C)C)C(=O)N[C@@H](CC(C)C)C(=O)N[C@@H](C)C(=O)N[C@@H](CCC(N)=O)C(=O)N[C@@H](CCCNC(=N)N)C(=O)O)C(C)C)[C@@H](C)CC [AT257] (H-GGTFISDYSIAMDRIK(C16 diacid)QQDFVNWLLAQR-OH; N-terminus assumed)	5	4	

Source: patent US12187773B2, “Modified GIP peptide analogues” (Antag Therapeutics ApS, priority 2018, dated 2025)
